The test deals with T1, Drak2 (Homo sapiens, UniProt O94768).
T1 sequence (O94768 1-372): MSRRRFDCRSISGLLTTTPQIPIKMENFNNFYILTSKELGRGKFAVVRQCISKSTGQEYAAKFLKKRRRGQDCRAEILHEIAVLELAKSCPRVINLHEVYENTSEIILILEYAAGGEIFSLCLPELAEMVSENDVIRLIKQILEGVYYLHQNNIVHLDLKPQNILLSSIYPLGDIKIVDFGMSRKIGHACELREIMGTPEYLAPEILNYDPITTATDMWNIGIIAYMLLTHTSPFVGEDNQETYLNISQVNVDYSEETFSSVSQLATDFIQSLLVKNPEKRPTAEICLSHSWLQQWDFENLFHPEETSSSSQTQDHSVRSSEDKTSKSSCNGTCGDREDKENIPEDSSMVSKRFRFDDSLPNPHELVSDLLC
As to the kind of experiment: Drak2 activity test, ADP-Glo kinase assay (Promega). In kind it is biochemical. The following applies: inhibition of Drak2 kinase activity, 2 h room temperature, activity range classes, read-out: IC50_Drak2. (ADP-Glo turns the ADP formed in a reaction into a luminescent signal.)
In the case of `CCCCC(=O)Nc1csc(-c2cncc(-c3cc(OC)ccc3OC)n2)c1` [Example A13, N-(5-(6-(2,5-dimethoxyphenyl)pyrazin-2-yl)thiophen-3-yl)pentanamide], the IC50 was in the range of 101 to 1000 nM. With `COc1ccc(OC)c(-c2cncc(-c3cc(NC(=O)C4CCC4)cs3)n2)c1` [Example A14, N-(5-(6-(2,5-dimethoxyphenyl)pyrazin-2-yl)thiophen-3-yl)cyclobutanecarboxamide] the figure was 1000 to 10000 nM; with `COc1cc(-c2cncc(-c3cc(NC(=O)C4CCC4)cs3)n2)ccc1Cl` [Example A15, N-(5-(6-(4-chloro-3-methoxyphenyl)pyrazin-2-yl)thiophen-3-yl)cyclobutanecarboxamide], 101 to 1000 nM. In the case of `CCCCC(=O)Nc1csc(-c2cncc(-c3ccc(Cl)c(OC)c3)n2)c1` [Example A16, N-(5-(6-(4-chloro-3-methoxyphenyl)pyrazin-2-yl)thiophen-3-yl)pentanamide], the IC50 lay within 1000 to 10000 nM. To `COc1ccc(-c2cncc(-c3cc(NC(=O)C4CCC4)cs3)n2)cc1Cl` [Example A17, N-(5-(6-(3-chloro-4-methoxyphenyl)pyrazin-2-yl)thiophen-3-yl)cyclobutanecarboxamide] belongs 101 to 1000 nM.

Turning to `CCCCC(=O)Nc1csc(-c2cncc(-c3cc(OC)cc(OC)c3)n2)c1` [Example A18, N-(5-(6-(3,5-dimethoxyphenyl)pyrazin-2-yl)thiophen-3-yl)pentanamide], the IC50 is 101 to 1000 nM. Consider `CCCCC(=O)Nc1csc(-c2cncc(-c3ccc(OC)c(Cl)c3)n2)c1` [Example A19, N-(5-(6-(3-chloro-4-methoxyphenyl)pyrazin-2-yl)thiophen-3-yl)pentanamide], for which the IC50 is 101 to 1000 nM.

Take `CCCCC(=O)Nc1csc(-c2cncc(-c3ccc(C#N)c(OC)c3)n2)c1` [Example A20, N-(5-(6-(4-cyano-3-methoxyphenyl)pyrazin-2-yl)thiophen-3-yl)pentanamide]: the IC50 is 101 to 1000 nM. For the compound `CCCCC(=O)Nc1csc(-c2cncc(-c3ccc(OC)c(C#N)c3)n2)c1` [Example A21, N-(5-(6-(3-cyano-4-methoxyphenyl)pyrazin-2-yl)thiophen-3-yl)pentanamide], the IC50 is 101 to 1000 nM. With `COc1ccc(-c2cncc(-c3cc(NC(=O)C4CCC4)cs3)n2)cc1C#N` [Example A22, N-(5-(6-(3-cyano-4-methoxyphenyl)pyrazin-2-yl)thiophen-3-yl)cyclobutanecarboxamide] the figure was 101 to 1000 nM; with `CCCCC(=O)Nc1csc(-c2cncc(-c3ccc4c(c3)OCO4)n2)c1` [Example A23, N-(5-(6-(benzo[d][1,3]dioxol-5-yl)pyrazin-2-yl)thiophen-3-yl)pentanamide], 101 to 1000 nM; with `O=C(Nc1csc(-c2cncc(-c3ccc4c(c3)OCO4)n2)c1)C1CCC1` [Example A24, N-(5-(6-(benzo[d][1,3]dioxol-5-yl)pyrazin-2-yl)thiophen-3-yl)cyclobutanecarboxamide], 1000 to 10000 nM. With `COc1cc(C(N)=O)c(-c2cncc(-c3cc(NC(=O)C4CCC4)cs3)n2)cc1OC` [Example A25, 2-(6-(4-(cyclobutanecarboxamido)thiophen-2-yl)pyrazin-2-yl)-4,5-dimethoxybenzamide] the figure was over 10000 nM.

As for `CCCCC(=O)Nc1csc(-c2cncc(-c3cc(OC)c(OC)cc3C(N)=O)n2)c1` [Example A26, 4,5-dimethoxy-2-(6-(4-pentanamidothiophen-2-yl)pyrazin-2-yl)benzamide], the IC50 was in the range of 1000 to 10000 nM. For the compound `CCCCC(=O)Nc1csc(-c2cncc(-c3ccc(F)c(F)c3)n2)c1` [Example A27, N-(5-(6-(3,4-difluorophenyl)pyrazin-2-yl)thiophen-3-yl)pentanamide], the IC50 fell in the range of 1000 to 10000 nM. With `O=C(Nc1csc(-c2cncc(-c3ccc(F)c(F)c3)n2)c1)C1CCC1` [Example A28, N-(5-(6-(3,4-difluorophenyl)pyrazin-2-yl)thiophen-3-yl)cyclobutanecarboxamide], the IC50 lay in the range of 1000 to 10000 nM. As for `CCCCCC(=O)Nc1csc(-c2cncc(-c3ccc(OC)c(OC)c3)n2)c1` [Example A29, N-(5-(6-(3,4-dimethoxyphenyl)pyrazin-2-yl)thiophen-3-yl)hexanamide], the IC50 fell in the range of 101 to 1000 nM.

For the compound `CCCCCCC(=O)Nc1csc(-c2cncc(-c3ccc(OC)c(OC)c3)n2)c1` [Example A30, N-(5-(6-(3,4-dimethoxyphenyl)pyrazin-2-yl)thiophen-3-yl)heptanamide], the IC50 was over 10000 nM. Consider `COc1ccc(-c2cncc(-c3cc(NC(=O)CC4CC4)cs3)n2)cc1OC` [Example A31, 2-cyclopropyl-N-(5-(6-(3,4-dimethoxyphenyl)pyrazin-2-yl)thiophen-3-yl)acetamide], for which the IC50 was 11 to 100 nM. In the case of `COc1ccc(-c2cncc(-c3cc(NC(=O)CC4CCC4)cs3)n2)cc1OC` [Example A32, 2-cyclobutyl-N-(5-(6-(3,4-dimethoxyphenyl)pyrazin-2-yl)thiophen-3-yl)acetamide], the IC50 was in the range of 11 to 100 nM. To `COc1ccc(-c2cncc(-c3cc(NC(=O)CC4CCCC4)cs3)n2)cc1OC` [Example A33, 2-cyclopentyl-N-(5-(6-(3,4-dimethoxyphenyl)pyrazin-2-yl)thiophen-3-yl)acetamide] belongs 101 to 1000 nM; to `CCCCC(=O)Nc1csc(-c2cncc(-c3ccc(O)c(F)c3)n2)c1` [Example A34, N-(5-(6-(3-fluoro-4-hydroxyphenyl)pyrazin-2-yl)thiophen-3-yl)pentanamide], 11 to 100 nM. Take `CCCCC(=O)Nc1csc(-c2cncc(-c3ccc(C4(O)COC4)c(OC)c3)n2)c1` [Example A35, N-(5-(6-(4-(3-hydroxyoxetan-3-yl)-3-methoxyphenyl)pyrazin-2-yl)thiophen-3-yl)pentanamide]: the IC50 was in the range of 11 to 100 nM. With `CCCCC(=O)Nc1csc(-c2cncc(-c3ccc(-c4cc(O)no4)c(OC)c3)n2)c1` [Example A36, N-(5-(6-(4-(3-hydroxyisoxazol-5-yl)-3-methoxyphenyl)pyrazin-2-yl)thiophen-3-yl)pentanamide], the IC50 lay in the range of 101 to 1000 nM. On to `CCCCC(=O)Nc1csc(-c2cncc(-c3ccc(C4=NOC(=O)C4)c(OC)c3)n2)c1` [Example A37, N-(5-(6-(3-methoxy-4-(5-oxo-4,5-dihydroisoxazol-3-yl)phenyl)pyrazin-2-yl)thiophen-3-yl)pentanamide], for which the IC50 fell in the range of 101 to 1000 nM.

In the case of `CCCCC(=O)Nc1csc(-c2cncc(-c3cc(F)c(O)c(OC)c3)n2)c1` [Example A38, N-(5-(6-(3-fluoro-4-hydroxy-5-methoxyphenyl)pyrazin-2-yl)thiophen-3-yl)pentanamide], the IC50 fell in the range of 1000 to 10000 nM. Regarding `CCCCC(=O)Nc1csc(-c2cncc(-c3ccc(-c4nc(=O)o[nH]4)c(OC)c3)n2)c1` [Example A39, N-(5-(6-(3-methoxy-4-(5-oxo-2,5-dihydro-1,2,4-oxadiazol-3-yl)phenyl)pyrazin-2-yl)thiophen-3-yl)pentanamide], the IC50 lay within 101 to 1000 nM. For the compound `CCCCC(=O)Nc1csc(-c2cncc(-c3ccc(S(C)(=O)=O)cc3)n2)c1` [Example A40, N-(5-(6-(4-(methylsulfonyl)phenyl)pyrazin-2-yl)thiophen-3-yl)pentanamide], the IC50 fell in the range of 101 to 1000 nM. In the case of `CCCCC(=O)Nc1csc(-c2cncc(-c3ccc(F)c(O)c3)n2)c1` [Example A41, N-(5-(6-(4-fluoro-3-hydroxyphenyl)pyrazin-2-yl)thiophen-3-yl)pentanamide], the IC50 was 101 to 1000 nM. Take `CCCCC(=O)Nc1csc(-c2cncc(-c3ccc(S(C)(=O)=O)c(OC)c3)n2)c1` [Example A42, N-(5-(6-(3-methoxy-4-(methylsulfonyl)phenyl)pyrazin-2-yl)thiophen-3-yl)pentanamide]: the IC50 was in the range of 101 to 1000 nM. With `COc1cc(-c2cncc(-c3cc(NC(=O)CC4CC4)cs3)n2)ccc1S(C)(=O)=O` [Example A43, 2-cyclopropyl-N-(5-(6-(3-methoxy-4-(methylsulfonyl)phenyl)pyrazin-2-yl)thiophen-3-yl)acetamide] the figure was 11 to 100 nM; with `COc1cc(-c2cncc(-c3cc(NC(=O)CC4CCC4)cs3)n2)ccc1S(C)(=O)=O` [Example A44, 2-cyclobutyl-N-(5-(6-(3-methoxy-4-(methylsulfonyl)phenyl)pyrazin-2-yl)thiophen-3-yl)acetamide], 11 to 100 nM. `CCCCC(=O)Nc1cc(-c2cncc(-c3ccc(S(C)(=O)=O)c(OC)c3)n2)sc1C` [Example A45, N-(5-(6-(3-methoxy-4-(methylsulfonyl)phenyl)pyrazin-2-yl)-2-methylthiophen-3-yl)pentanamide]: the IC50 lay within 1000 to 10000 nM. Turning to `CCS(=O)(=O)c1ccc(-c2cncc(-c3cc(NC(=O)CC4CCC4)cs3)n2)cc1OC` [Example A46, 2-cyclobutyl-N-(5-(6-(4-(ethylsulfonyl)-3-methoxyphenyl)pyrazin-2-yl)thiophen-3-yl)acetamide], the IC50 fell in the range of 101 to 1000 nM. In the case of `COc1cc(-c2cncc(-c3cc(NC(=O)CC4CCC4)cs3)n2)ccc1[S+](C)[O-]` (stereo not shown) [Example A47, 2-cyclobutyl-N-(5-(6-(3-methoxy-4-(methylsulfinyl)phenyl)pyrazin-2-yl)thiophen-3-yl)acetamide], the IC50 was 101 to 1000 nM. As to `COc1cc(-c2cncc(-c3cc(NC(=O)CC4CCC4)cs3)n2)ccc1S(=O)(=O)C1CCC1` [Example A48, 2-cyclobutyl-N-(5-(6-(4-(cyclobutylsulfonyl)-3-methoxyphenyl)pyrazin-2-yl)thiophen-3-yl)acetamide], the IC50 was in the range of 101 to 1000 nM. Take `Cn1ncc2ccc(-c3cncc(-c4cc(NC(=O)CC5CCC5)cs4)n3)cc21` [Example A49, 2-cyclobutyl-N-(5-(6-(1-methyl-1H-indazol-6-yl)pyrazin-2-yl)thiophen-3-yl)acetamide]: the IC50 was 11 to 100 nM.

Source of the values: patent US20240308992A1 (Biopolar Youtang(Guangdong) Pharmaceutical Co., Ltd., priority 2021, published 2024).
